Measured values as given in patent US10144709B2, “Piperidine compounds, pharmaceutical composition comprising the same and its use” (SK BIOPHARMACEUTICALS CO., LTD., priority 2008, dated 2018).
Counter-ions that a name gives are not always drawn.

The molecules below were run on ICR CD strain male mice (assay: Gastric emptying enhancing activity (phenol red meal)). Conditions: Mus musculus, ip, 0.25 h, 3.0 mg/kg i.p., gastric emptying at 15 min after test meal, increase vs vehicle.
Format: in vivo
Experimental: ICR CD strain male mice (body weight, 25˜30 g; 8 mice per one group) were fasted for 24 h but allowed free access to water until 3 hours before the test.
Compounds to be tested for promoting GI motility were injected intraperitoneally or given orally at 30 min or 60 min prior to phenol red meal administration. Fifteen (15) min after administration of a test meal (0.5% Phenol red in 1.5% methylcellulose solution), mice were sacrificed and the stomach (pylorus˜cardia) was removed and collected to vial. The stomach was homogenized with its contents in 0.1N NaOH and the mixture was centrifuged (700*g) for 20 min. 2.5 mL of the supernatant was added to 0.25 mL of trichloroacetic acid solution (20% w/v) to precipitate proteins. After centrifuging (2600*g) for 20 min, 0.5 mL of the supernatant was added to 0.25 mL of 1N NaOH. The mixture was homogenized and its absorbance (Abs) was read at 560 nm.
In each experiment, one group was sacrificed just after the administration of the test meal and was considered as a standard (0% emptying). The gastric emptying (GE) at the 15 min period was calculated according to the following formula. GE (%)=(1−Abstest/Absstandard)×100 Increase (%)=(GE %test−GE %vehicle)/GE %vehicle*100

Point of comparison: `COc1cc(N)c(Cl)cc1C(=O)NCC1CCN(CCC(NC(=O)O)c2ccccc2)CC1` (stereo not drawn) [Example 53, [3-[4-[[(4-amino-5-chloro-2-methoxybenzoyl)amino]methyl]piperidin-1-yl]-1-phenylpropyl]carbamate; hydrochloride], change in vivo at 3 mg/kg 28.4%. Against it:
- COc1cc(N)c(Cl)cc1C(=O)NCC1CCN(CC(O)c2ccc(F)cc2)CC1 (stereo not drawn) [Example 2, 4-amino-5-chloro-N-[[1-[2-(4-fluorophenyl)-2-hydroxyethyl]piperidin-4-yl]methyl]-2-methoxybenzamide; hydrochloride] — higher, 42.6%
- COc1cc(N)c(Cl)cc1C(=O)NCC1CCN(CC(O)c2ccc(C)cc2)CC1 (stereo not drawn) [Example 3, 4-amino-5-chloro-N-[[1-[2-hydroxy-2-(4-methylphenyl)ethyl]piperidin-4-yl]methyl]-2-methoxybenzamide; hydrochloride] — higher, 71.1%
- COc1ccc(C(O)CN2CCC(CNC(=O)c3cc(Cl)c(N)cc3OC)CC2)cc1 (stereo not drawn) [Example 4, 4-amino-5-chloro-N-[[1-[2-hydroxy-2-(4-methoxyphenyl)ethyl]piperidin-4-yl]methyl]-2-methoxybenzamide; hydrochloride] — higher, 74.1%
- COc1cc(N)c(Cl)cc1C(=O)NCC1CCN(CC(O)c2ccc(C#N)cc2)CC1 (stereo not drawn) [Example 5, 4-amino-5-chloro-N-[[1-[2-(4-cyanophenyl)-2-hydroxyethyl]piperidin-4-yl]methyl]-2-methoxybenzamide; hydrochloride] — higher, 76.1%
- COc1cc(N)c(Cl)cc1C(=O)NCC1CCN(CC(O)c2ccccc2OC)CC1 (stereo not drawn) [Example 8, 4-amino-5-chloro-N-[[1-[2-hydroxy-2-(2-methoxyphenyl)ethyl]piperidin-4-yl]methyl]-2-methoxybenzamide; hydrochloride] — higher, 51.6%
- COc1cccc(C(O)CN2CCC(CNC(=O)c3cc(Cl)c(N)cc3OC)CC2)c1 (stereo not drawn) [Example 9, 4-amino-5-chloro-N-[[1-[2-hydroxy-2-(3-methoxyphenyl)ethyl]piperidin-4-yl]methyl]-2-methoxybenzamide; hydrochloride] — higher, 55.8%
- COc1cc(N)c(Cl)cc1C(=O)NCC1CCN(CC(O)c2ccccc2Cl)CC1 (stereo not drawn) [Example 13, 4-amino-5-chloro-N-[[1-[2-(2-chlorophenyl)-2-hydroxyethyl]piperidin-4-yl]methyl]-2-methoxybenzamide; hydrochloride] — lower, 14%
- COc1ccc(OC)c(C(O)CN2CCC(CNC(=O)c3cc(Cl)c(N)cc3OC)CC2)c1 (stereo not drawn) [Example 15, 4-amino-5-chloro-N-[[1-[2-(2,5-dimethoxyphenyl)-2-hydroxyethyl]piperidin-4-yl]methyl]-2-methoxybenzamide; hydrochloride] — higher, 78.7%
- COc1cc(N)c(Cl)cc1C(=O)NCC1CCN(CC(O)c2ccc(OC(F)F)cc2)CC1 (stereo not drawn) [Example 16, 4-amino-5-chloro-N-[[1-[2-[4-(difluoromethoxy)phenyl]-2-hydroxyethyl]piperidin-4-yl]methyl]-2-methoxybenzamide; hydrochloride] — higher, 53.6%
- COc1cc(N)c(Cl)cc1C(=O)NCC1CCN(CC(O)c2ccc(F)c(F)c2)CC1 (stereo not drawn) [Example 17, 4-amino-5-chloro-N-[[1-[2-(3,4-difluorophenyl)-2-hydroxyethyl]piperidin-4-yl]methyl]-2-methoxybenzamide; hydrochloride] — lower, 22.1%
- COc1cc(N)c(Cl)cc1C(=O)NCC1CCN(CC(NC(=O)O)c2ccc(C)cc2)CC1 (stereo not drawn) [Example 24, [2-[4-[[(4-amino-5-chloro-2-methoxybenzoyl)amino]methyl]piperidin-1-yl]-1-(4-methylphenyl)ethyl]carbamate; hydrochloride] — higher, 71.1%
- COc1cc(N)c(Cl)cc1C(=O)NCC1CCN(CC(NC(=O)O)c2ccccc2Cl)CC1 (stereo not drawn) [Example 29, [2-[4-[[(4-amino-5-chloro-2-methoxybenzoyl)amino]methyl]piperidin-1-yl]-1-(2-chlorophenyl)ethyl]carbamate; hydrochloride] — higher, 61.3%
- COc1cc(N)c(Cl)cc1C(=O)NCC1CCN(CC(NC(=O)O)c2ccc(OC(F)F)cc2)CC1 (stereo not drawn) [Example 32, [2-[4-[[(4-amino-5-chloro-2-methoxybenzoyl)amino]methyl]piperidin-1-yl]-1-[4-(difluoromethoxy)phenyl]ethyl]carbamate; hydrochloride] — higher, 40%
- COc1cc(N)c(Cl)cc1C(=O)NCC1CCN(CCC(O)c2ccccc2)CC1 (stereo not drawn) [Example 36, 4-amino-5-chloro-N-[[1-(3-hydroxy-3-phenylpropyl)piperidin-4-yl]methyl]-2-methoxybenzamide; hydrochloride] — higher, 55.2%
- COc1cc(N)c(Cl)cc1C(=O)NCC1CCN(CCC(O)c2ccc(F)cc2)CC1 (stereo not drawn) [Example 37, 4-amino-5-chloro-N-[[1-[3-(4-fluorophenyl)-3-hydroxypropyl]piperidin-4-yl]methyl]-2-methoxybenzamide; hydrochloride] — higher, 70.7%
- COc1cc(N)c(Cl)cc1C(=O)NCC1CCN(CCC(O)c2ccc(Cl)cc2)CC1 (stereo not drawn) [Example 38, 4-amino-5-chloro-N-[[1-[3-(4-chlorophenyl)-3-hydroxypropyl]piperidin-4-yl]methyl]-2-methoxybenzamide; hydrochloride] — higher, 49.1%
- COc1cc(N)c(Cl)cc1C(=O)NCC1CCN(CCC(O)c2ccc(C)cc2)CC1 (stereo not drawn) [Example 39, 4-amino-5-chloro-N-[[1-[3-hydroxy-3-(4-methylphenyl)propyl]piperidin-4-yl]methyl]-2-methoxybenzamide; hydrochloride] — higher, 40%
- COc1ccc(C(O)CCN2CCC(CNC(=O)c3cc(Cl)c(N)cc3OC)CC2)cc1 (stereo not drawn) [Example 40, 4-amino-5-chloro-N-[[1-[3-hydroxy-3-(4-methoxyphenyl)propyl]piperidin-4-yl]methyl]-2-methoxybenzamide; hydrochloride] — higher, 51.6%
- COc1cc(N)c(Cl)cc1C(=O)NCC1CCN(CCC(O)c2ccccc2Cl)CC1 (stereo not drawn) [Example 41, 4-amino-5-chloro-N-[[1-[3-(2-chlorophenyl)-3-hydroxypropyl]piperidin-4-yl]methyl]-2-methoxybenzamide; hydrochloride] — lower, 24.3%
- COc1cc(N)c(Cl)cc1C(=O)NCC1CCN(CCC(O)c2cccc(Cl)c2)CC1 (stereo not drawn) [Example 42, 4-amino-5-chloro-N-[[1-[3-(3-chlorophenyl)-3-hydroxypropyl]piperidin-4-yl]methyl]-2-methoxybenzamide; hydrochloride] — higher, 42.7%
- COc1cc(N)c(Cl)cc1C(=O)NCC1CCN(CCC(O)c2ccccc2F)CC1 (stereo not drawn) [Example 43, 4-amino-5-chloro-N-[[1-[3-(2-fluorophenyl)-3-hydroxypropyl]piperidin-4-yl]methyl]-2-methoxybenzamide; hydrochloride] — higher, 46.1%
- COc1cc(N)c(Cl)cc1C(=O)NCC1CCN(CCC(O)c2cccc(Cl)c2Cl)CC1 (stereo not drawn) [Example 45, 4-amino-5-chloro-N-[[1-[3-(2,3-dichlorophenyl)-3-hydroxypropyl]piperidin-4-yl]methyl]-2-methoxybenzamide; hydrochloride] — higher, 51.4%
- COc1cc(N)c(Cl)cc1C(=O)NCC1CCN(CCC(O)c2ccc(Cl)cc2Cl)CC1 (stereo not drawn) [Example 46, 4-amino-5-chloro-N-[[1-[3-(2,4-dichlorophenyl)-3-hydroxypropyl]piperidin-4-yl]methyl]-2-methoxybenzamide; hydrochloride] — higher, 45.9%
- COc1cc(N)c(Cl)cc1C(=O)NCC1CCN(CCC(O)c2ccc(Cl)c(Cl)c2)CC1 (stereo not drawn) [Example 47, 4-amino-5-chloro-N-[[1-[3-(3,4-dichlorophenyl)-3-hydroxypropyl]piperidin-4-yl]methyl]-2-methoxybenzamide; hydrochloride] — lower, 25.9%
- COc1cc(N)c(Cl)cc1C(=O)NCC1CCN(CCC(O)c2ccc(C(C)C)cc2)CC1 (stereo not drawn) [Example 48, 4-amino-5-chloro-N-[[1-[3-(4-isopropylphenyl)-3-hydroxypropyl]piperidin-4-yl]methyl]-2-methoxybenzamide; hydrochloride] — lower, 3.5%
- COc1cccc(C(O)CCN2CCC(CNC(=O)c3cc(Cl)c(N)cc3OC)CC2)c1 (stereo not drawn) [Example 49, 4-amino-5-chloro-N-[[1-[3-(3-methoxyphenyl)-3-hydroxypropyl]piperidin-4-yl]methyl]-2-methoxybenzamide; hydrochloride] — lower, 17.8%
- COc1cc(N)c(Cl)cc1C(=O)NCC1CCN(CCC(O)c2cccs2)CC1 (stereo not drawn) [Example 50, 4-amino-5-chloro-N-[[1-(3-hydroxy-3-thiophen-2-ylpropyl)piperidin-4-yl]methyl]-2-methoxybenzamide; hydrochloride] — lower, 3.9%
- COc1cc(N)c(Cl)cc1C(=O)NCC1CCN(CCC(O)Cc2ccc(F)cc2)CC1 (stereo not drawn) [Example 51, 4-amino-5-chloro-N-[[1-[4-(4-fluorophenyl)-3-hydroxybutyl]piperidin-4-yl]methyl]-2-methoxybenzamide; hydrochloride] — higher, 122%
- COc1cc(N)c(Cl)cc1C(=O)NCC1CCN(CCC(O)CCc2ccc(F)cc2)CC1 (stereo not drawn) [Example 52, 4-amino-5-chloro-N-[[1-[5-(4-fluorophenyl)-3-hydroxypentyl]piperidin-4-yl]methyl]-2-methoxybenzamide; hydrochloride] — higher, 131%
